How the values were obtained:
Test in all cases: KINOMEscan competition binding
Settings in all cases: compound 10.0 µM
[1] = target: STK38L (human) (UniProt Q9Y2H1)
[2] = target: SBK1 (human) (UniProt Q52WX2)
[3] = target: ABL2 (human) (UniProt P42684)
[4] = target: MAP2K6 (human) (UniProt P52564)
[5] = target: RPS6KA6 KD2 (human) (UniProt Q9UK32)
[6] = target: AAK1 (human) (UniProt Q2M2I8)
[7] = target: STK32B (human) (UniProt Q9NY57)
[8] = target: TAOK3 (human) (UniProt Q9H2K8)
[9] = target: TNIK (human) (UniProt Q9UKE5)
[10] = target: MAP3K5 (human) (UniProt Q99683)
[11] = target: GRK7 (human) (UniProt Q8WTQ7)
[12] = target: MET (human) (UniProt P08581)
[13] = target: MAP2K3 (human) (UniProt P46734)
[14] = target: TLK2 (human) (UniProt Q86UE8)
[15] = system: PIK3CA (human), P42336 [E542K]
[16] = target: CASK (human) (UniProt O14936)
[17] = target: MAPK14 (human) (UniProt Q16539)
[18] = target: NEK2 (human) (UniProt P51955)
[19] = target: DYRK1B (human) (UniProt Q9Y463)
Sequence of DYRK1B (human) (Q9Y463 whole entry, looked up): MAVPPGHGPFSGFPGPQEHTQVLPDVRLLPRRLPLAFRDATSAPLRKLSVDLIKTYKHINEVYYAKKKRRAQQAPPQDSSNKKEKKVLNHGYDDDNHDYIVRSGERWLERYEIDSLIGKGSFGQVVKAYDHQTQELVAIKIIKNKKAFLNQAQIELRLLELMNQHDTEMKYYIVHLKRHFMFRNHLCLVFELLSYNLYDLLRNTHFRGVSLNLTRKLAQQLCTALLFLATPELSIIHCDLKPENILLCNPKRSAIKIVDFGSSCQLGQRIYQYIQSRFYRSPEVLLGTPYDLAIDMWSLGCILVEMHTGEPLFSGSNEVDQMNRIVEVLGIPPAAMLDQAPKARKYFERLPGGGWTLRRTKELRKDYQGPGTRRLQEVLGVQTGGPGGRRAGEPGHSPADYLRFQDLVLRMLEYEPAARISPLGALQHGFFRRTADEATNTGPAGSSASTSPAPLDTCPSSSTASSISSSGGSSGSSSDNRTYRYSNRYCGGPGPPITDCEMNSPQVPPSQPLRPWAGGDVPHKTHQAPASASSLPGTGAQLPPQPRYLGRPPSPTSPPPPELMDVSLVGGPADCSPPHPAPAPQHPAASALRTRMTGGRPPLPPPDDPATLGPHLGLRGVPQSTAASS

[20] = target: FYN (human) (UniProt P06241)
Sequence of FYN (human) (P06241 whole entry, looked up): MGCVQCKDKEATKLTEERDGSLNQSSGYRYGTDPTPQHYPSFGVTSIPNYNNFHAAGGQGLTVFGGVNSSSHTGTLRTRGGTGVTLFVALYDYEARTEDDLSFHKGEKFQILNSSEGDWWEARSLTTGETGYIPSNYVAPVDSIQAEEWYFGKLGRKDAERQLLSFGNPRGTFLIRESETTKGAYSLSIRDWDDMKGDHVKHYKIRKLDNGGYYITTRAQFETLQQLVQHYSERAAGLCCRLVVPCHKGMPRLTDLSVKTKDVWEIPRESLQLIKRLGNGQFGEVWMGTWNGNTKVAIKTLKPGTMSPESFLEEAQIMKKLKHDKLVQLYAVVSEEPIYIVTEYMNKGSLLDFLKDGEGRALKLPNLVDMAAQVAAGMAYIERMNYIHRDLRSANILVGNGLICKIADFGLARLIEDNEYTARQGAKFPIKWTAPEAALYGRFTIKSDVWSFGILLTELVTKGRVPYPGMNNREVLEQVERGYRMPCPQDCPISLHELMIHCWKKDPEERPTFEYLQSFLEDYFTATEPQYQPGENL

[21] = target: TAOK2 (human) (UniProt Q9UL54)
Sequence of TAOK2 (human) (Q9UL54 whole entry, looked up): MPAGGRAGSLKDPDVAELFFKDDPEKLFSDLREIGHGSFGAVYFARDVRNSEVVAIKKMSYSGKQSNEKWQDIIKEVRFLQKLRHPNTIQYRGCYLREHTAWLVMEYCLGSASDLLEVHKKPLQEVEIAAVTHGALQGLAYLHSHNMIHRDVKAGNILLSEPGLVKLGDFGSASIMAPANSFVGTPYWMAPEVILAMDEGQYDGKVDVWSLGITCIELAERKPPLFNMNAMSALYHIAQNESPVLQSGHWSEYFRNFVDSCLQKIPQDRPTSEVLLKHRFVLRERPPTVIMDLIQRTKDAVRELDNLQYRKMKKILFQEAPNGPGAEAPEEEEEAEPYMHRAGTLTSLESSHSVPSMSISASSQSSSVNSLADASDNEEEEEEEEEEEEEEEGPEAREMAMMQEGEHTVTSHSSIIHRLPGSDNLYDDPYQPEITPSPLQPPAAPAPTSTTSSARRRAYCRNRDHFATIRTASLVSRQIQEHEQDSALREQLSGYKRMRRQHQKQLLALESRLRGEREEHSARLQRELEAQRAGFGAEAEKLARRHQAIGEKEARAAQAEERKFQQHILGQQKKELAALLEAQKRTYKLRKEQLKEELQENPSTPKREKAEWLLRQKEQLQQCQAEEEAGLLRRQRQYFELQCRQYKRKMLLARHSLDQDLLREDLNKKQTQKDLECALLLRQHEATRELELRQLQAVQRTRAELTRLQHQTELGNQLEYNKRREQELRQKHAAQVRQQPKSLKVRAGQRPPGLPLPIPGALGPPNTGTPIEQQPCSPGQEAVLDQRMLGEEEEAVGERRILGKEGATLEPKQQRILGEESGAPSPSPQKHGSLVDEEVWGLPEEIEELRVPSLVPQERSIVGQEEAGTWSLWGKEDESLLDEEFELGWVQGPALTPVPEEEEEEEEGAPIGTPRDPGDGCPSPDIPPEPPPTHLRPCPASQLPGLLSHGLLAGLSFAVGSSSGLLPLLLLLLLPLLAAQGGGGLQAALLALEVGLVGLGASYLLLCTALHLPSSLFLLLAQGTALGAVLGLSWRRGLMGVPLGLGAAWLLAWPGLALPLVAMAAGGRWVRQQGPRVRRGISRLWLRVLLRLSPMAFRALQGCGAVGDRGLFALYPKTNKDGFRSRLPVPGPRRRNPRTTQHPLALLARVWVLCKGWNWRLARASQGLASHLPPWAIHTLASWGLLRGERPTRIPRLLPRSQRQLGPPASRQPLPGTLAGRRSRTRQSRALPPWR

[22] = target: PIK3CD (human) (UniProt O00329)
[23] = target: DDR2 (human) (UniProt Q16832)
[24] = target: IRAK1 (human) (UniProt P51617)
[25] = target: SRC (human) (UniProt P12931)
Sequence of SRC (human) (P12931 whole entry, looked up): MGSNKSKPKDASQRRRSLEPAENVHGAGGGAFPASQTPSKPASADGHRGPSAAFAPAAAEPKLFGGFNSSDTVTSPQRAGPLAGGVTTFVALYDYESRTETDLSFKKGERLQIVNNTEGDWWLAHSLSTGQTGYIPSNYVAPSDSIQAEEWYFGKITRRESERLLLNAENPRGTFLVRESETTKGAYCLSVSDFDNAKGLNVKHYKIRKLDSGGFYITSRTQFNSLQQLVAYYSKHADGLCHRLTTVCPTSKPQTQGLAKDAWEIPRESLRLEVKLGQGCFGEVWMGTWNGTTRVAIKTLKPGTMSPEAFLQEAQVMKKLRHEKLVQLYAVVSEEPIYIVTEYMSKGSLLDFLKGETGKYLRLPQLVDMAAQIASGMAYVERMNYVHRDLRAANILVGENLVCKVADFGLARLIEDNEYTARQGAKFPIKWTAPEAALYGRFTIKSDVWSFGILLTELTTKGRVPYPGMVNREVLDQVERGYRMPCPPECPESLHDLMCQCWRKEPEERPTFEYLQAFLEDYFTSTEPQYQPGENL

[26] = target: MAP3K10 (human) (UniProt Q02779)
Sequence of MAP3K10 (human) (Q02779 whole entry, looked up): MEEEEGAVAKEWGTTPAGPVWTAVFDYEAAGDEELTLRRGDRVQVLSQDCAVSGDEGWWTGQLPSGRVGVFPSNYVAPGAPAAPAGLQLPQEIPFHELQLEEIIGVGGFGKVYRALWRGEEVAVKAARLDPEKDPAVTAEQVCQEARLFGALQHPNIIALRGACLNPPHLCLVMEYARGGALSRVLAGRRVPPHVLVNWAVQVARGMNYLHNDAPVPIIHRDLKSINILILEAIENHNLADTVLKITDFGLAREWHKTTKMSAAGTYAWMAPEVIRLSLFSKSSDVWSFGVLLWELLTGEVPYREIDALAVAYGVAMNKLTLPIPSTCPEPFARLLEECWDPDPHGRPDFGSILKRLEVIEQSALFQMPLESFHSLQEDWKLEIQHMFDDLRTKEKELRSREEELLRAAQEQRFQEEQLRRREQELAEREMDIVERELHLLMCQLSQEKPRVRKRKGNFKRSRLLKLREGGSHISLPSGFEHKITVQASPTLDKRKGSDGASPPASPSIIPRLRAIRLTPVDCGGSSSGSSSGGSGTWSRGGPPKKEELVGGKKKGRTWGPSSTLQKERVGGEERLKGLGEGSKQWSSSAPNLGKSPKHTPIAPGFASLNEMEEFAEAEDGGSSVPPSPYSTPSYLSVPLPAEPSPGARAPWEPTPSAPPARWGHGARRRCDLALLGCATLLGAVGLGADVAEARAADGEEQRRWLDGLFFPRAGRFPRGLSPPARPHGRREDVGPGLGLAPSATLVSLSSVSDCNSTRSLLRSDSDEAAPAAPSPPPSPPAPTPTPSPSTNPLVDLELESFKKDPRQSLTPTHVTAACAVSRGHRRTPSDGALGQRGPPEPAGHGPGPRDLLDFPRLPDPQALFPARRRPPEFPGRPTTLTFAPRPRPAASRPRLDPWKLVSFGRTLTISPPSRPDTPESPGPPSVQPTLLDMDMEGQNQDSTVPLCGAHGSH

[27] = target: SRMS (human) (UniProt Q9H3Y6)
[28] = target: INSRR (human) (UniProt P14616)
[29] = target: MERTK (human) (UniProt Q12866)
[30] = target: RIPK2 (human) (UniProt O43353)
[31] = target: DMPK (human) (UniProt Q09013)
[32] = target: TGFBR1 (human) (UniProt P36897)
[33] = target: MARK4 (human) (UniProt Q96L34)
[34] = target: BMPR2 (human) (UniProt Q13873)
[35] = target: MATK (human) (UniProt P42679)
[36] = target: ANKK1 (human) (UniProt Q8NFD2)
[37] = target: TNNI3K (human) (UniProt Q59H18)
[38] = target: PLK4 (human) (UniProt O00444)
[39] = target: PRKD1 (human) (UniProt Q15139)
[40] = target: EPHA5 (human) (UniProt P54756)

Sequence of SBK1 (human) (Q52WX2 whole entry, looked up): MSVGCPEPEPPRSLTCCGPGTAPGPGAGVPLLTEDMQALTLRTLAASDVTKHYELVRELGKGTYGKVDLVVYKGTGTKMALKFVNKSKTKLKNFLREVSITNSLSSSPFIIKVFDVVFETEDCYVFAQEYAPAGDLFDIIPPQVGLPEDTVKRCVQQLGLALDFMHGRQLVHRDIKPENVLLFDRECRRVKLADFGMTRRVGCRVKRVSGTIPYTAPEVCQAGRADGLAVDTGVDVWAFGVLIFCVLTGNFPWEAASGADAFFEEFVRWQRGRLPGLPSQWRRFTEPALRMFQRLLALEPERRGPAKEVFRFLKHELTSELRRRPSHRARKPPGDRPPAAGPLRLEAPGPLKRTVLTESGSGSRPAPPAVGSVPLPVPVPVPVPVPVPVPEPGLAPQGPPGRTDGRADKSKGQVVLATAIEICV
Sequence of RPS6KA6 KD2 (human) (Q9UK32 whole entry, looked up): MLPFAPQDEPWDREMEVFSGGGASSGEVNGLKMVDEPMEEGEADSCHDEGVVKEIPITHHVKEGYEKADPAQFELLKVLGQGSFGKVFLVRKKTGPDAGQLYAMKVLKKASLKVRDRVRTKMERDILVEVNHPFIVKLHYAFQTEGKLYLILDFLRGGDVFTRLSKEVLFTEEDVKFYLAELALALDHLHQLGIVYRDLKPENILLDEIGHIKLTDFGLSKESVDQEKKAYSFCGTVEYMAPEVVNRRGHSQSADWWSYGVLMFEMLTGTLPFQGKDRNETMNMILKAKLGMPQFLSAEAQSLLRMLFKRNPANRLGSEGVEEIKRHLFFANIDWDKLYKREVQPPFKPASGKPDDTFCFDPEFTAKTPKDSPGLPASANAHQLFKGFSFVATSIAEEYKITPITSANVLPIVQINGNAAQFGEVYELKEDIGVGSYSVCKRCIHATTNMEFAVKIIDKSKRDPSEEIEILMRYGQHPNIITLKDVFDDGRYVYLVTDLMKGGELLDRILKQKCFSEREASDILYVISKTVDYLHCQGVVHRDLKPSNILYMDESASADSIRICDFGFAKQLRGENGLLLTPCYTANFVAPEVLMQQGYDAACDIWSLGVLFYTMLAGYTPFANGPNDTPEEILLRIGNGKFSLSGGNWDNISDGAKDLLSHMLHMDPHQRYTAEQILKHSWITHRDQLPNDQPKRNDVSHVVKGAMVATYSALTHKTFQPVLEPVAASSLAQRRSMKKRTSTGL

SMILES	kinase still bound, per cent of control [1]	kinase still bound, per cent of control [2]	kinase still bound, per cent of control [3]	kinase still bound, per cent of control [4]	kinase still bound, per cent of control [5]	kinase still bound, per cent of control [6]	kinase still bound, per cent of control [7]	kinase still bound, per cent of control [8]	kinase still bound, per cent of control [9]	kinase still bound, per cent of control [10]	kinase still bound, per cent of control [11]	kinase still bound, per cent of control [12]	kinase still bound, per cent of control [13]	kinase still bound, per cent of control [14]	kinase still bound, per cent of control [15]	kinase still bound, per cent of control [16]	kinase still bound, per cent of control [17]	kinase still bound, per cent of control [18]	kinase still bound, per cent of control [19]	kinase still bound, per cent of control [20]	other results
CCCS(=O)(=O)Nc1ccc(F)c(C(=O)c2c[nH]c3ncc(Cl)cc23)c1F	71%	92%	36%	47%	98%	84%	100%	61%	24%	74%	76%	77%	53%	75%	100%	51%	60%	49%	87%	11%	kinase still bound, per cent of control [21]: 43%; kinase still bound, per cent of control [22]: 84%; kinase still bound, per cent of control [23]: 15%; kinase still bound, per cent of control [24]: 60%; kinase still bound, per cent of control [25]: 9.2%; kinase still bound, per cent of control [26]: 87%; kinase still bound, per cent of control [27]: 0.05%; kinase still bound, per cent of control [28]: 89%; kinase still bound, per cent of control [29]: 94%; kinase still bound, per cent of control [30]: 8.3%; kinase still bound, per cent of control [31]: 100%; kinase still bound, per cent of control [32]: 60%; kinase still bound, per cent of control [33]: 72%; kinase still bound, per cent of control [34]: 67%; kinase still bound, per cent of control [35]: 90%; kinase still bound, per cent of control [36]: 98%; kinase still bound, per cent of control [37]: 75%; kinase still bound, per cent of control [38]: 27%; kinase still bound, per cent of control [39]: 31%; kinase still bound, per cent of control [40]: 100%
CNC(=O)Nc1ccc(-c2nc(N3CC4CCC(C3)O4)c3cnn(C4CCC5(CC4)OCCO5)c3n2)cc1	100%	100%	84%	95%	84%	100%	86%	90%	100%	85%	91%	93%	89%	100%	14%	64%	100%	72%	100%	70%	kinase still bound, per cent of control [21]: 100%; kinase still bound, per cent of control [22]: 5.7%; kinase still bound, per cent of control [23]: 100%; kinase still bound, per cent of control [24]: 100%; kinase still bound, per cent of control [25]: 75%; kinase still bound, per cent of control [26]: 100%; kinase still bound, per cent of control [27]: 97%; kinase still bound, per cent of control [28]: 100%; kinase still bound, per cent of control [29]: 87%; kinase still bound, per cent of control [30]: 71%; kinase still bound, per cent of control [31]: 83%; kinase still bound, per cent of control [32]: 100%; kinase still bound, per cent of control [33]: 94%; kinase still bound, per cent of control [34]: 83%; kinase still bound, per cent of control [35]: 100%; kinase still bound, per cent of control [36]: 77%; kinase still bound, per cent of control [37]: 59%; kinase still bound, per cent of control [38]: 75%; kinase still bound, per cent of control [39]: 100%; kinase still bound, per cent of control [40]: 92%

Reference: the kinase profiling compilation of Christmann-Franck et al. (2016)
